Data set [1] in a line: Human abuse liability study, intranasal: pharmacokinetics. The class given is in vivo. As to conditions: inhaled or intranasal, intranasal (insufflated), plasma, PK Set, read-out: median tmax. The protocol: (§1) A single-site, randomized, double-blind, double-dummy, active-comparator, placebo-controlled, 3-way crossover trial in adult non-dependent recreational opioid users was conducted to compare the intranasal abuse potential of the tablet formulation according to Inventive Example 1 and standard formulations of oxycodone.
(§2) The primary objective of the study was to compare the intranasal abuse potential of a manipulated formulation according to Inventive Example 1 and oxycodone active pharmaceutical ingredient (API) powder (representing manipulated oxycodone IR standard formulation). Primary measure: Peak effect (Emax) for Drug Liking "at this moment" on visual analog scale (VAS). The secondary objectives were to compare the pharmacokinetics (PK), further pharmacodynamic (PD) parameters, and assess safety and tolerability.
Subjects received single treatments of Test, Comparator, and Placebo in a randomized, double-blind, double-dummy, 3-way crossover. Each single treatment consisted of two investigational medicinal products (IMPs), to be insufflated (snorted) in quick succession in fixed sequence:
Pharmacokinetics results are presented in Figure 7 relative to the insufflated amount of oxycodone, mean dose-normalized plasma-concentration-time profiles of Oxycodone - PK Set: […]

The test system of data set [2] is non-dependent recreational opioid users. The experiment in a line: Human abuse liability study, intranasal: pharmacodynamics (VAS Drug Liking, pupillometry). The class given is in vivo. The settings on record: 30 mg oxycodone HCl, Completer Set. How it is done:
The formulation according to Inventive Example 1 was tested in a human abuse liability study and compared to a commercial product and to placebo (placebo API and placebo TRF formulation).
as §1, §2
The trial design is illustrated in Figure 3 (Single-site, randomized, double-blind, double-dummy, active-comparator, placebo-controlled, 3-way crossover trial in male and female non-dependent recreational opioid users with recent intranasal use experience).
Subjects received single treatments of Test, Comparator, and Placebo in a randomized, double-blind, double-dummy, 3-way crossover. […]

Take `COc1ccc2c3c1O[C@H]1C(=O)CC[C@@]4(O)[C@@H](C2)N(C)CC[C@]314.Cl` [Comparator (C), oxycodone HCl]: the time to peak (Tmax) in data set [1] was 1.75 h. Moreover, in data set [2], the “Peak effect (Emax) of Drug Liking "at this moment", Least Square Mean” value was determined as 75.0.

One may read the Tmax as the time at which the peak concentration occurs.

The values are drawn from patent publication EP3698776A1, “TAMPER-RESISTANT DOSAGE FORM WITH IMMEDIATE RELEASE AND RESISTANCE AGAINST SOLVENT EXTRACTION” (Grünenthal GmbH, priority 2019, dated 2020).
